Measured values: PMC5218480 (PLoS ONE, 2017)

Tested on: MV-4-11 cells
Assay: Gene expression microarray analysis (Affymetrix PrimeView) and GSEA
Assay type: cell-based, human
Set-up: RFU PODN (11730768_x_at) / Fold change /veh PODN (11730768_x_at) / RFU LINC00158 (11744669_a_at) / Fold change /veh LINC00158 (11744669_a_at) / RFU DUSP10 (11751237_a_at) / Fold change /veh DUSP10 (11751237_a_at) / RFU ID3 (11757404_x_at) / Fold change /veh ID3 (11757404_x_at) / RFU PLEKHG5 (11737974_s_at) / Fold change /veh PLEKHG5 (11737974_s_at) / RFU LRRC4B (11730491_at) / Fold change /veh LRRC4B (11730491_at) / RFU GIMAP4 (11747438_a_at) / Fold change /veh GIMAP4 (11747438_a_at) / RFU KRT8 (11758183_x_at) / Fold change /veh KRT8 (11758183_x_at) / RFU CNN1 (11734310_a_at) / Fold change /veh CNN1 (11734310_a_at) / RFU VPS37D (11726825_at) / Fold change /veh VPS37D (11726825_at) / RFU C10orf10 (11716522_x_at) / Fold change /veh C10orf10 (11716522_x_at) / RFU KIR2DL2 /// KIR2DL4 /// KIR2DL5A /// KIR2DL5B /// KIR2DS1 /// KIR2DS2 /// KIR2DS3 /// KIR2DS4 /// KIR3DL3 /// KIR3DL3 /// KIR3DS1 (11738374_at) / Fold change /veh KIR2DL2 /// KIR2DL4 /// KIR2DL5A /// KIR2DL5B /// KIR2DS1 /// KIR2DS2 /// KIR2DS3 /// KIR2DS4 /// KIR3DL3 /// KIR3DL3 /// KIR3DS1 (11738374_at) / RFU C1QL1 (11718748_at) / Fold change /veh C1QL1 (11718748_at) / RFU TMPRSS4 (11747572_a_at) / Fold change /veh TMPRSS4 (11747572_a_at) / RFU HAMP (11756126_x_at) / Fold change /veh HAMP (11756126_x_at) / RFU RNFT2 (11725882_a_at) / Fold change /veh RNFT2 (11725882_a_at) / RFU NR4A2 (11747474_a_at) / Fold change /veh NR4A2 (11747474_a_at) / RFU ABCC12 (11746883_a_at) / Fold change /veh ABCC12 (11746883_a_at) / RFU TMEM136 (11760407_x_at) / Fold change /veh TMEM136 (11760407_x_at) / RFU CLDN22 /// WWC2 (11732394_at) / Fold change /veh CLDN22 /// WWC2 (11732394_at) / RFU HLA-DPB1 (11760878_x_at) / Fold change /veh HLA-DPB1 (11760878_x_at) / RFU SPINT1 (11716480_a_at) / Fold change /veh SPINT1 (11716480_a_at) / RFU GAP43 (11754022_s_at) / Fold change /veh GAP43 (11754022_s_at) / RFU A4GNT (11735810_at) / Fold change /veh A4GNT (11735810_at) / RFU PRB3 (11715151_x_at) / Fold change /veh PRB3 (11715151_x_at) / RFU TUBB4B (11761932_at) / Fold change /veh TUBB4B (11761932_at) / RFU CAPN14 (11732068_a_at) / Fold change /veh CAPN14 (11732068_a_at) / RFU TMCC2 (11721928_a_at) / Fold change /veh TMCC2 (11721928_a_at) / RFU IRGQ (11745062_a_at) / Fold change /veh IRGQ (11745062_a_at) / RFU FAM174B (11720279_a_at) / Fold change /veh FAM174B (11720279_a_at) / RFU TMPRSS4 (11748680_a_at) / Fold change /veh TMPRSS4 (11748680_a_at) / RFU FAM212B (11763350_a_at) / Fold change /veh FAM212B (11763350_a_at) / RFU PLEKHG5 (11743358_a_at) / Fold change /veh PLEKHG5 (11743358_a_at) / RFU ZSCAN30 (11745921_a_at) / Fold change /veh ZSCAN30 (11745921_a_at) / RFU CMKLR1 (11741424_a_at) / Fold change /veh CMKLR1 (11741424_a_at) / RFU LOC101060620 /// MAPK8IP1 (11723275_at) / Fold change /veh LOC101060620 /// MAPK8IP1 (11723275_at) / RFU SPTSSB (11747773_x_at) / Fold change /veh SPTSSB (11747773_x_at) / RFU PRSS12 (11739890_at) / Fold change /veh PRSS12 (11739890_at) / RFU BIN1 (11741810_x_at) / Fold change /veh BIN1 (11741810_x_at) / RFU WNT11 (11732464_a_at) / Fold change /veh WNT11 (11732464_a_at) / RFU C10orf10 (11716521_a_at) / Fold change /veh C10orf10 (11716521_a_at) / RFU C5orf56 (11738089_at) / Fold change /veh C5orf56 (11738089_at) / RFU CYB561 (11721691_x_at) / Fold change /veh CYB561 (11721691_x_at) / RFU ANKRD19P (11752326_a_at) / Fold change /veh ANKRD19P (11752326_a_at) / RFU OR2T12 /// OR2T33 /// OR2T8 (11738714_s_at) / Fold change /veh OR2T12 /// OR2T33 /// OR2T8 (11738714_s_at) / RFU VCAN (11748164_a_at) / Fold change /veh VCAN (11748164_a_at) / RFU JSRP1 (11732532_at) / Fold change /veh JSRP1 (11732532_at) / RFU KRTAP10-11 (11738290_x_at) / Fold change /veh KRTAP10-11 (11738290_x_at) / RFU MYO3A (11730013_a_at) / Fold change /veh MYO3A (11730013_a_at) / RFU EBF3 (11725865_a_at) / Fold change /veh EBF3 (11725865_a_at) / RFU CAMK2N1 (11719241_x_at) / Fold change /veh CAMK2N1 (11719241_x_at) / RFU C5orf56 (11738088_a_at) / Fold change /veh C5orf56 (11738088_a_at) / RFU OLFML3 (11715873_a_at) / Fold change /veh OLFML3 (11715873_a_at) / RFU LOC100653217 /// NTM (11731650_a_at) / Fold change /veh LOC100653217 /// NTM (11731650_a_at) / RFU MAPK11 (11762145_a_at) / Fold change /veh MAPK11 (11762145_a_at) / RFU FIZ1 (11724087_x_at) / Fold change /veh FIZ1 (11724087_x_at) / RFU OASL (11726364_x_at) / Fold change /veh OASL (11726364_x_at) / RFU SOX15 (11748057_x_at) / Fold change /veh SOX15 (11748057_x_at) / RFU CD79A (11719716_a_at) / Fold change /veh CD79A (11719716_a_at) / RFU HIST1H1D (11736915_at) / Fold change /veh HIST1H1D (11736915_at) / RFU CASKIN2 (11723855_a_at) / Fold change /veh CASKIN2 (11723855_a_at) / RFU LOC730098 (11760151_x_at) / Fold change /veh LOC730098 (11760151_x_at) / RFU OR4N2 (11742367_at) / Fold change /veh OR4N2 (11742367_at) / RFU PRRT2 (11749266_a_at) / Fold change /veh PRRT2 (11749266_a_at) / RFU SNX32 (11753110_a_at) / Fold change /veh SNX32 (11753110_a_at) / RFU CDHR5 (11726645_a_at) / Fold change /veh CDHR5 (11726645_a_at) / RFU RCAN1 (11760418_a_at) / Fold change /veh RCAN1 (11760418_a_at) / RFU FAM167A (11723789_a_at) / Fold change /veh FAM167A (11723789_a_at) / RFU FAM26E (11764081_at) / Fold change /veh FAM26E (11764081_at) / RFU ISYNA1 (11749810_s_at) / Fold change /veh ISYNA1 (11749810_s_at) / RFU ACY1 (11761880_at) / Fold change /veh ACY1 (11761880_at) / RFU 11764098_at / Fold change /veh 11764098_at / RFU SAMD14 (11745864_x_at) / Fold change /veh SAMD14 (11745864_x_at) / RFU NPB (11741838_a_at) / Fold change /veh NPB (11741838_a_at) / RFU TMPRSS6 (11731388_a_at) / Fold change /veh TMPRSS6 (11731388_a_at) / RFU KRTAP10-2 (11738614_at) / Fold change /veh KRTAP10-2 (11738614_at) / RFU ARHGAP8 /// PRR5-ARHGAP8 (11727945_x_at) / Fold change /veh ARHGAP8 /// PRR5-ARHGAP8 (11727945_x_at) / RFU KRTAP5-7 /// NADSYN1 (11734609_at) / Fold change /veh KRTAP5-7 /// NADSYN1 (11734609_at) / RFU RASL12 (11751679_a_at) / Fold change /veh RASL12 (11751679_a_at) / RFU CDKN2B (11736163_a_at) / Fold change /veh CDKN2B (11736163_a_at) / RFU PRF1 (11729649_at) / Fold change /veh PRF1 (11729649_at) / RFU, ZNF638 /// ZNF638-IT1 / Fold change vs veh, ZNF638 /// ZNF638-IT1 / RFU, PANK3 / Fold change vs veh, PANK3 / RFU, SH3YL1 / Fold change vs veh, SH3YL1 / RFU, ZEB2 / Fold change vs veh, ZEB2 / RFU, NRIP1 / Fold change vs veh, NRIP1 / RFU, PTTG1IP / Fold change vs veh, PTTG1IP / RFU, CAPN2 / Fold change vs veh, CAPN2 / RFU, MED14 / Fold change vs veh, MED14 / RFU, SNORA58 / Fold change vs veh, SNORA58 / RFU, C1orf63 / Fold change vs veh, C1orf63 / RFU, LRRFIP1 / Fold change vs veh, LRRFIP1 / RFU, NDUFAF7 / Fold change vs veh, NDUFAF7 / RFU, SLC12A2 / Fold change vs veh, SLC12A2 / RFU, IBTK / Fold change vs veh, IBTK / RFU, ESF1 / Fold change vs veh, ESF1 / Fold change vs veh, TMEM50B / RFU, TAOK1 / Fold change vs veh, TAOK1 / RFU, ACBD3 / Fold change vs veh, ACBD3 / RFU, TMA16 / Fold change vs veh, TMA16 / RFU, RWDD3 / Fold change vs veh, RWDD3 / RFU, BCAT1 / Fold change vs veh, BCAT1 / RFU, EDEM3 / Fold change vs veh, EDEM3 / RFU, TMEM33 / Fold change vs veh, TMEM33 / RFU, WDR75 / Fold change vs veh, WDR75 / RFU, AHCTF1 / Fold change vs veh, AHCTF1 / RFU, TFRC / Fold change vs veh, TFRC / RFU, ZDHHC17 / Fold change vs veh, ZDHHC17 / RFU, NOM1 / Fold change vs veh, NOM1 / RFU, ARL8B / Fold change vs veh, ARL8B / RFU, ZBTB11 / Fold change vs veh, ZBTB11 / RFU, TAMM41 / Fold change vs veh, TAMM41 / RFU, KIAA1704 /// LOC100996395 / Fold change vs veh, KIAA1704 /// LOC100996395 / RFU, ING1 / Fold change vs veh, ING1 / RFU, TRMT61B / Fold change vs veh, TRMT61B / RFU, FUBP3 / Fold change vs veh, FUBP3 / RFU, TP53 / Fold change vs veh, TP53 / RFU, TNKS2 / Fold change vs veh, TNKS2 / RFU, ZFP14 / Fold change vs veh, ZFP14 / RFU, ACTR2 / Fold change vs veh, ACTR2 / RFU, PPP3R1 / Fold change vs veh, PPP3R1 / RFU, PIK3R1 / Fold change vs veh, PIK3R1 / RFU, HNRNPA1 / Fold change vs veh, HNRNPA1 / RFU, RNF170 / Fold change vs veh, RNF170 / RFU, ZNF28 / Fold change vs veh, ZNF28 / RFU, RNGTT / Fold change vs veh, RNGTT / RFU, OGT / Fold change vs veh, OGT / RFU, BRD1 / Fold change vs veh, BRD1 / RFU, MARS / Fold change vs veh, MARS / RFU, ZNF655 / Fold change vs veh, ZNF655 / RFU, FAHD1 / Fold change vs veh, FAHD1 / RFU, BDP1 / Fold change vs veh, BDP1 / RFU, LRRCC1 / Fold change vs veh, LRRCC1 / RFU, ARID1A / Fold change vs veh, ARID1A / RFU, ZNF146 / Fold change vs veh, ZNF146 / RFU, ZNF330 / Fold change vs veh, ZNF330 / RFU, GPN3 / Fold change vs veh, GPN3 / RFU, C9orf123 / Fold change vs veh, C9orf123 / RFU, N4BP2L2 / Fold change vs veh, N4BP2L2 / RFU, ARFIP1 / Fold change vs veh, ARFIP1 / RFU, FAM179B / Fold change vs veh, FAM179B / RFU, BCL10 / Fold change vs veh, BCL10 / RFU, UHRF1BP1L / Fold change vs veh, UHRF1BP1L / RFU, BET1 / Fold change vs veh, BET1 / RFU, CNOT2 / Fold change vs veh, CNOT2 / RFU, ZNF268 / Fold change vs veh, ZNF268 / Fold change vs veh, ZNF507 / RFU, DGCR2 / Fold change vs veh, DGCR2 / RFU, WDSUB1 / Fold change vs veh, WDSUB1 / Fold change vs veh, HSP90B1 /// MIR3652 / RFU, ADSS / Fold change vs veh, ADSS / RFU, GK / Fold change vs veh, GK / RFU, ZNF148 / Fold change vs veh, ZNF148 / RFU, TAF9 / Fold change vs veh, TAF9 / RFU, SLC1A5 / Fold change vs veh, SLC1A5 / RFU, SLMO2 / Fold change vs veh, SLMO2 / RFU, ABCC4 / Fold change vs veh, ABCC4 / RFU, LOC101060439 /// RAP1B / Fold change vs veh, LOC101060439 /// RAP1B / RFU, RFX7 / Fold change vs veh, RFX7 / RFU, GTPBP10 / Fold change vs veh, GTPBP10 / RFU, CNEP1R1 / Fold change vs veh, CNEP1R1 / RFU, BIVM-ERCC5 /// ERCC5 / Fold change vs veh, BIVM-ERCC5 /// ERCC5 / RFU, ILF3 / Fold change vs veh, ILF3 / RFU 11762660_at / Fold change /veh 11762660_at / RFU VCAN (11757783_s_at) / Fold change /veh VCAN (11757783_s_at) / RFU DDX43 (11728927_at) / Fold change /veh DDX43 (11728927_at) / RFU KRT8 (11758188_x_at) / Fold change /veh KRT8 (11758188_x_at) / RFU NKD1 (11759106_at) / Fold change /veh NKD1 (11759106_at) / RFU SRD5A1 (11742802_a_at) / Fold change /veh SRD5A1 (11742802_a_at) / RFU TPSAB1 /// TPSB2 (11721975_s_at) / Fold change /veh TPSAB1 /// TPSB2 (11721975_s_at) / RFU GSTM3 (11746129_a_at) / Fold change /veh GSTM3 (11746129_a_at) / RFU IL23R (11737362_x_at) / Fold change /veh IL23R (11737362_x_at) / RFU TMEM51 (11727254_a_at) / Fold change /veh TMEM51 (11727254_a_at) / RFU PIWIL2 (11732686_x_at) / Fold change /veh PIWIL2 (11732686_x_at) / RFU ORM1 (11744905_x_at) / Fold change /veh ORM1 (11744905_x_at) / RFU CCDC152 (11743942_at) / Fold change /veh CCDC152 (11743942_at) / RFU ECM1 (11717891_a_at) / Fold change /veh ECM1 (11717891_a_at) / RFU IL23R (11748794_a_at) / Fold change /veh IL23R (11748794_a_at) / RFU TNFAIP8L3 (11732012_x_at) / Fold change /veh TNFAIP8L3 (11732012_x_at) / RFU MBOAT4 (11741988_at) / Fold change /veh MBOAT4 (11741988_at) / RFU 11764193_at / Fold change /veh 11764193_at / RFU TMEM53 (11763286_at) / Fold change /veh TMEM53 (11763286_at) / RFU MAGEB2 (11727129_at) / Fold change /veh MAGEB2 (11727129_at) / RFU TMEM200A (11744735_a_at) / Fold change /veh TMEM200A (11744735_a_at) / RFU CCDC152 (11751479_a_at) / Fold change /veh CCDC152 (11751479_a_at) / RFU FAM211A (11726209_a_at) / Fold change /veh FAM211A (11726209_a_at) / RFU RGS16 (11746705_a_at) / Fold change /veh RGS16 (11746705_a_at) / RFU VCAN (11755009_s_at) / Fold change /veh VCAN (11755009_s_at) / RFU RHOB (11743442_s_at) / Fold change /veh RHOB (11743442_s_at) / RFU RGS16 (11720943_a_at) / Fold change /veh RGS16 (11720943_a_at) / RFU RGS16 (11720944_at) / Fold change /veh RGS16 (11720944_at) / RFU, VPS4B / Fold change vs veh, VPS4B / RFU, CREB1 / Fold change vs veh, CREB1 / RFU, DNAJC13 / Fold change vs veh, DNAJC13 / RFU, GNAQ / Fold change vs veh, GNAQ / RFU, CDK5R1 / Fold change vs veh, CDK5R1 / RFU, ZRANB3 / Fold change vs veh, ZRANB3 / RFU, CUL4A / Fold change vs veh, CUL4A / RFU, CCNY / Fold change vs veh, CCNY / RFU, UFL1 / Fold change vs veh, UFL1 / RFU, COG3 / Fold change vs veh, COG3 / RFU, DIAPH2 / Fold change vs veh, DIAPH2 / RFU, SKA2 / Fold change vs veh, SKA2 / RFU, AFF3 / Fold change vs veh, AFF3 / RFU, LMF1 / Fold change vs veh, LMF1 / RFU, IPO11 / Fold change vs veh, IPO11 / RFU, DFFB / Fold change vs veh, DFFB / RFU, FOXP1 / Fold change vs veh, FOXP1 / RFU, CARD8 / Fold change vs veh, CARD8 / RFU, STRN3 / Fold change vs veh, STRN3 / RFU, ADK / Fold change vs veh, ADK / RFU, RASSF2 / Fold change vs veh, RASSF2 / RFU, WIPF1 / Fold change vs veh, WIPF1 / RFU, LARP1B / Fold change vs veh, LARP1B / RFU, RASA1 / Fold change vs veh, RASA1 / RFU, RB1 / Fold change vs veh, RB1 / RFU, PPFIA1 / Fold change vs veh, PPFIA1 / RFU, MAT2A / Fold change vs veh, MAT2A / RFU, CCT5 / Fold change vs veh, CCT5 / RFU, WDR92 / Fold change vs veh, WDR92 / RFU, CUX1 / Fold change vs veh, CUX1 / RFU, TTC7A / Fold change vs veh, TTC7A / RFU, TMEM135 / Fold change vs veh, TMEM135 / RFU, DEPTOR / Fold change vs veh, DEPTOR / RFU, CPM / Fold change vs veh, CPM / RFU, DNAJB6 / Fold change vs veh, DNAJB6 / RFU, CACNA2D3 / Fold change vs veh, CACNA2D3 / RFU, DTX4 / Fold change vs veh, DTX4 / RFU, TFCP2 / Fold change vs veh, TFCP2 / RFU, GMCL1 /// GMCL1P1 / Fold change vs veh, GMCL1 /// GMCL1P1 / RFU, AEBP2 / Fold change vs veh, AEBP2 / RFU, SNHG1 /// SNORD22 /// SNORD25 /// SNORD26 /// SNORD27 /// SNORD28 /// SNORD29 /// SNORD31 / Fold change vs veh, SNHG1 /// SNORD22 /// SNORD25 /// SNORD26 /// SNORD27 /// SNORD28 /// SNORD29 /// SNORD31 / Fold change (Aza/veh), C12orf56 (ProbeSet 11735607_a_at) / Fold change (ACY-1035/veh), C12orf56 (ProbeSet 11735607_a_at) / Fold change (Aza/veh), FGFR1OP (ProbeSet 11751329_s_at) / Fold change (ACY-1035/veh), FGFR1OP (ProbeSet 11751329_s_at) / Fold change (Aza/veh), VPS36 (ProbeSet 11739960_a_at) / Fold change (ACY-1035/veh), VPS36 (ProbeSet 11739960_a_at) / RFU SYPL1 (11715823_x_at) / Fold change /veh SYPL1 (11715823_x_at) / RFU IGFBP7 (11715501_s_at) / Fold change /veh IGFBP7 (11715501_s_at) / RFU REEP3 (11722064_at) / Fold change /veh REEP3 (11722064_at) / RFU IGLL1 (11728026_x_at) / Fold change /veh IGLL1 (11728026_x_at): dose or concentration left out as unconfirmed
Conditions: MV-4-11 cells, 48 hours

SMILES: Nc1ncn([C@@H]2O[C@H](CO)[C@@H](O)[C@H]2O)c(=O)n1 [azacitidine]
- Fold change /veh TUBB4B (11761932_at): 1.00
